Target: T1, sGC α1/β1 heterodimer stably expressed in CHO-K1 cells (CHO-K1/sGC) (Homo sapiens, UniProt Q02108+Q02153)
T1 construct: expressed in transfected cells
T1 sequence (Q02108 1-690): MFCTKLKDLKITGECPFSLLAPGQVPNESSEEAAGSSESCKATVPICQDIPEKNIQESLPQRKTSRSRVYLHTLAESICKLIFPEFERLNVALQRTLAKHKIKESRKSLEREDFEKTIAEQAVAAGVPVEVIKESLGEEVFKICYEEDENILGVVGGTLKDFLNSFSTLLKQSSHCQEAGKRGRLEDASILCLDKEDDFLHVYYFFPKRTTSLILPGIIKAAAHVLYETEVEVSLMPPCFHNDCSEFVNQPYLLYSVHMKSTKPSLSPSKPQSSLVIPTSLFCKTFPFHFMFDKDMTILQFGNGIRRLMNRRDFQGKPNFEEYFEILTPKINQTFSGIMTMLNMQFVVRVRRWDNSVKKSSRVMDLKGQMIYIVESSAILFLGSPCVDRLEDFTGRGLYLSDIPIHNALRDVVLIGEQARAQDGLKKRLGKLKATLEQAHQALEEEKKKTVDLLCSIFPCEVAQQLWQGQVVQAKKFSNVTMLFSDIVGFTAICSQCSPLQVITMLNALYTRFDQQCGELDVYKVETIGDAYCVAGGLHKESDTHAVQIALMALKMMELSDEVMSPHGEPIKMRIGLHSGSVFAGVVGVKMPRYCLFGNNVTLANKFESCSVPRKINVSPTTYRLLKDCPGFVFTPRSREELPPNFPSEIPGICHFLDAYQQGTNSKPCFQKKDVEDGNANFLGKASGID
T1 sequence (Q02153 1-619): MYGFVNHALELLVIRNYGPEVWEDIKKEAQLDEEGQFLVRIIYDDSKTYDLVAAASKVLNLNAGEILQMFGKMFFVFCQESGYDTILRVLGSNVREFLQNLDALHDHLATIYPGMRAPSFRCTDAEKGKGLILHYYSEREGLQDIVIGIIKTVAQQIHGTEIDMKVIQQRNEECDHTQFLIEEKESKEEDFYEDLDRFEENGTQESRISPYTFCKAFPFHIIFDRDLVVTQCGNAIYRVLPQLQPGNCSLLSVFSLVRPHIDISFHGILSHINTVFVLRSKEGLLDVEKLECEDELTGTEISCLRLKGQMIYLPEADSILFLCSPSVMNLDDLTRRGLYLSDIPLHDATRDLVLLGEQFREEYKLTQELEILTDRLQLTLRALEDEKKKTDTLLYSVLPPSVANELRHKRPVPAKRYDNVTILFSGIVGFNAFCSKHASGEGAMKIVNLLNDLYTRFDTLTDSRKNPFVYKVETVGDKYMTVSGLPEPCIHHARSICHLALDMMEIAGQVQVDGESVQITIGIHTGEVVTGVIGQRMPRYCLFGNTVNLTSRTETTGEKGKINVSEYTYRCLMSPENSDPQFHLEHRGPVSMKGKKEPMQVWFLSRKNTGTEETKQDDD
Test: Cell-based sGC functional assay (CASA assay), cGMP generation by HTRF
Settings: for Emax: CHO-K1, maximum cGMP production of Compound A set to 100% activation, read-out: % Act. (percent activation relative to Compound A); for EC50: CHO-K1/sGC cells, 1 hr at 37° C., 4P fit, presence or absence of DETA-NO not given, read-out: IP (nM) (inflection point); for % Act. (percent activation relative to Compound A): maximum cGMP production of Compound A set to 100% activation
From the text: Biological Assay 1: Cell-Based sGC Functional Assay (CASA Assay) Rationale
sGC is a heme-containing enzyme that converts GTP to secondary messenger cGMP. Increases in cGMP levels affect several physiological processes including vasorelaxation through multiple downstream pathways. […] Heme-dependent activators (HDAs) preferentially activate sGC containing a ferrous heme group. To determine the effect of sGC activators on enzyme activity, the CASA assay was developed to monitor the generation of cGMP in a cell line that stably expresses the heterodimeric sGC protein.
A CHO-K1 cell line stably expressing the sGC α1/β1 heterodimer was generated using a standard transfection protocol. CHO-K1 cells were transfected with plasmids pIREShyghsGCα1 and pIRESneo-hsGCβ1 simultaneously using FUGENE reagent. Clones that stably express both subunits were selected with hygromycin and neomycin for ˜2 weeks. Clone #7 was chosen for the assay and was designated CHO-K1/sGC. CHO-K1/sGC cells were maintained in F-K12 medium containing 10% heat-inactivated Fetal Bovine Serum (FBS), 100 μg/mL penicillin/streptomycin, 0.5 mg/mL hygromycin and 0.25 mg/mL G418. The cells were then cryopreserved in LN2. On the day of the assay, cells were thawed and resuspended in EBSS Assay Buffer (Sigma, E3024) supplemented with 5 mM MgCl2, 10 mM HEPES (4-(2-hydroxyethyl)piperazine-1-ethanesulfonic acid) and 0.05% BSA (bovine serum albumin) (EAB) and cell density was then adjusted to 4×10^5/mL with EAB. IBMX (3-isobutyl-1-methylxanthin, 0.5 mM) was added to inhibit degradation of cGMP. Compounds were diluted from DMSO stock solutions and added to the assay at a final DMSO concentration of 2.5%. Cells were incubated with compounds in the presence and absence of 1 μM of Diethylenetriamine/nitric oxide adduct (DETA-NO; Sigma, 17018) for 1 hr at 37° C. At the end of the incubation period, the reaction was terminated and the cells were lysed with the detection reagents from Cisbio Kits. The level of intracellular cGMP was determined using an HTRF-based assay kit (CisBio, 62GM2PEC), which detects the displacement of a fluorescence labeled cGMP from its specific antibody. The cGMP produced by test compounds was directly compared to the maximum cGMP production (this value was set to equal 100% activation.) of the published sGC-HDA Compound A:
[drawing 101] (Example 1 in WO 2010/065275, published Jun. 10, 2010). The test compounds' activities were then expressed as a percentage of Compound A, the standard in every experiment. This percent activation was calculated either in the presence or absence of DETA-NO which was then plotted. IP and maximum fold induction was derived using ADA analysis software for 4P fit.
The compounds in the Examples of the instant invention had inflection points (IP) less than or equal to 10 μM and many had IPs less than or equal to about 1 μM.

Emax | EC50 | % Act. (percent activation relative to Compound A) | SMILES
89% | 291 nM | – | CC(CNc1nc(-c2nc(N)c3c(n2)NC(=O)C3(C)c2ccc(F)cc2)cn2ccnc12)C(F)(F)F (racemic) [Example 70, 4-amino-5-(4-fluorophenyl)-5-methyl-2-{8-[(3,3,3-trifluoro-2-methylpropyl)amino]imidazo [1,2-a]pyrazin-6-yl}-5,7-dihydro-6H-pyrrolo[2,3-d] pyrimidin-6-one]
– | 1710 nM | 115% | CC1(c2ccc(Cl)cc2)C(=O)Nc2nc(-c3cn4ccnc4c(OCC4CCCOC4)n3)nc(N)c21 (single isomer, unassigned; fast eluting) [Example 66A, 4-amino-5-(4-chlorophenyl)-5-methyl-2-[8-(tetrahydro-2H-pyran-3-ylmethoxy)imidazo[1,2-a]pyrazin-6-yl]-5,7-dihydro-6H-pyrrolo [2,3-d] pyrimidin-6-one (fast eluting)]
86% | 324 nM | – | CC1(c2ccc(Cl)cc2)C(=O)Nc2nc(-c3cn4ccnc4c(OCC4CCCCO4)n3)nc(N)c21 (single isomer, unassigned; fast eluting) [Example 68A, 4-amino-5-(4-chlorophenyl)-5-methyl-2-[8-(tetrahydro-2H-pyran-2-ylmethoxy)imidazo[1,2-a]pyrazin-6-yl]-5,7-dihydro-6H-pyrrolo [2,3-d] pyrimidin-6-one (fast eluting)]
103% | 833 nM | – | C[C@H](Oc1nc(-c2nc(N)c3c(n2)NC(=O)C3(C)c2ccc(Cl)cc2)cn2ccnc12)c1ccccc1 (single isomer, unassigned; fast eluting) [Example 69A]
96% | 175 nM | – | CC1(c2ccc(Cl)cc2)C(=O)Nc2nc(-c3cn4ccnc4c(NCC4CCCCO4)n3)nc(N)c21 (single isomer, unassigned; fast eluting) [Example 71A, 4-amino-5-(4-chlorophenyl)-5-methyl-2-{8-[(tetrahydro-2H-pyran-2-ylmethyl)amino]imidazo [1,2-a]pyrazin-6-yl}-5,7-dihydro-6H-pyrrolo[2,3-d] pyrimidin-6-one (fast eluting)]
96% | 1080 nM | – | CC1(c2ccc(Cl)cc2)C(=O)Nc2nc(-c3cn4ccnc4c(NCC4CCCOC4)n3)nc(N)c21 (single isomer, unassigned; fast eluting) [Example 72A, 4-amino-5-(4-chlorophenyl)-5-methyl-2-{8-[(tetrahydro-2H-pyran-3-ylmethyl)amino]imidazo [1,2-a]pyrazin-6-yl}-5,7-dihydro-6H-pyrrolo[2,3-d] pyrimidin-6-one (fast eluting)]
– | 501 nM | 94% | CC1(c2ccc(Cl)cc2)C(=O)Nc2nc(-c3cn4ccnc4c(OCC4CCCOC4)n3)nc(N)c21 (single isomer, unassigned; slow eluting) [Example 67B, 4-amino-5-(4-chlorophenyl)-5-methyl-2-[8-(tetrahydro-2H-pyran-3-ylmethoxy)imidazo[1,2-a]pyrazin-6-yl]-5,7-dihydro-6H-pyrrolo [2,3-d] pyrimidin-6-one (slow eluting)]
– | 633 nM | 85% | CC1(c2ccc(Cl)cc2)C(=O)Nc2nc(-c3cn4ccnc4c(OCC4CCCCO4)n3)nc(N)c21 (single isomer, unassigned; slow eluting) [Example 68B, 4-amino-5-(4-chlorophenyl)-5-methyl-2-[8-(tetrahydro-2H-pyran-2-ylmethoxy)imidazo[1,2-a]pyrazin-6-yl]-5,7-dihydro-6H-pyrrolo [2,3-d] pyrimidin-6-one (slow eluting)]
– | 143 nM | 95% | CC1(c2ccc(Cl)cc2)C(=O)Nc2nc(-c3cn4ccnc4c(NCC4CCCCO4)n3)nc(N)c21 (single isomer, unassigned; slow eluting) [Example 71B, 4-amino-5-(4-chlorophenyl)-5-methyl-2-{8-[(tetrahydro-2H-pyran-2-ylmethyl)amino]imidazo [1,2-a]pyrazin-6-yl}-5,7-dihydro-6H-pyrrolo[2,3-d] pyrimidin-6-one (slow eluting)]
– | 412 nM | 94% | CC1(c2ccc(Cl)cc2)C(=O)Nc2nc(-c3cn4ccnc4c(NCC4CCCOC4)n3)nc(N)c21 (single isomer, unassigned; slow eluting) [Example 72B, 4-amino-5-(4-chlorophenyl)-5-methyl-2-{8-[(tetrahydro-2H-pyran-3-ylmethyl)amino]imidazo [1,2-a]pyrazin-6-yl}-5,7-dihydro-6H-pyrrolo[2,3-d] pyrimidin-6-one (slow eluting)]
97% | 416 nM | – | CC1(c2ccccc2)C(=O)Nc2nc(-c3cn4ccnc4c(OCC(F)(F)C(F)(F)F)n3)nc(N)c21 (stereo not shown) [Example 3B, 4-amino-5-methyl-2-[8-(2,2,3,3,3-pentafluoropropoxy)imidazo[1,2-a]pyrazin-6-yl]-5-phenyl-5,7-dihydro-6H-pyrrolo [2,3-d]pyrimidin-6-one]
107% | 80 nM | – | CC1(c2ccccc2)C(=O)Nc2nc(-c3cn4ccnc4c(Oc4ccccc4F)n3)nc(N)c21 (stereo not shown) [Example 5B, 4-amino-2-[8-(2-fluorophenoxy)imidazo[1,2-a]pyrazin-6-yl]-5-methyl-5-phenyl-5,7-dihydro-6H-pyrrolo[2,3-d] pyrimidin-6-one]
89% | 499 nM | – | CC1(c2ccc(F)cc2)C(=O)Nc2nc(-c3cn4ccnc4c(Oc4c(F)ccc(F)c4F)n3)nc(N)c21 (stereo not shown) [Example 6A, 4-amino-5-(4-fluorophenyl)-5-methyl-2-[8-(2,3,6-trifluorophenoxy)imidazo[1,2-a]pyrazin-6-yl]-5,7-dihydro-6H-pyrrolo[2,3-d] pyrimidin-6-one]

SMILES | Emax | EC50 | % Act. (percent activation relative to Compound A)
CCCC(C)Oc1nc(-c2nc(N)c3c(n2)NC(=O)C3(C)c2ccc(F)cc2)cn2ccnc12 (racemic) [Example 65A, 4-amino-5-(4-fluorophenyl)-5-methyl-2-[8-(1-methyl-butoxy)imidazo [1,2-a]pyrazin-6-yl]-5,7-dihydro-6H-pyrrolo[2,3-d] pyrimidin-6-one] | 101% | 461 nM | –

From patent US10245264B2, “Substituted imidazo[1,2-a]pyrazines as soluble guanylate cyclase activators” (Merck Sharp & Dohme Corp., priority 2015, dated 2019)
